“Also recorded” adds a separate entry of the source.
Key:
U251MG cells = assay: Megamitochondria formation, COX IV immunofluorescence and electron microscopy; assay type: cell-based, human
Method: U251MG cells were plated onto 8 well chamber-slides (Nunc, Wiesbaden, Germany) or grown confluently in 6 cm culture dishes containing round glass cover plates. For some samples, the cells were stained with the fluorescent dye MitoTracker Red CMXRos (50 nM, Molecular Probes, Invitrogen, Karlsruhe, Germany) for 30 min at 37° C. 24 h after seeding, the cells were fixed for 15 min with 2% paraformaldehyde solution or pre-cooled 100% methanol (on ice), washed 3× with PBS, permeabilized on ice with PBS containing 0.2% TritonX-100 and 1% fetal calf serum for 5 min and washed again three times with PBS containing 1% or 5% FCS. After blocking with PBS containing 1% or 5% FCS at room temperature for 60 min, permeabilized cells were incubated with monoclonal rabbit fluoro-conjugated anti-COX IV antibody (1:10, 3E11, Alexa Fluor 488 conjugate, Cell Signaling) or monoclonal mouse anti-polyhis-tag antibody (1:1000, R&D Systems) for 30 min at 4° C. and then washed three times with PBS with 1% or 5% FCS. In case the primary antibody was unconjugated to a fluorescent dye, goat anti-mouse or anti-rabbit secondary antibody Alexa Fluor® 488 or […] (1:200, Invitrogen GmbH, Karlsruhe, Germany) together with 1 μg/ml 4′,6-Diamidino-2-phenylindol (DAPI) was added for 30 min at 4° C. in a dark chamber. After washing three times with PBS with 1% or 5% FCS, cells were covered with cover slips. Photomicrographs were taken using a Olympus VANOX-T (AH-2) fluorescence microscope with immersion oil, ne 23=1.518 and the Soft Imaging System AnalysisB software (Leica Microsystems, Wetzlar, Germany) or on a confocal microscope (Leica SP2).
Cells were fixed in situ with 2.3% glutaraldehyde in 50 mM sodium cacodylat (pH 7.2) for 30 min at 4° C., scraped from the plates, collected by low-speed centrifugation at 200×g for 10 min at 4° C. and successively stained with 2% osmium tetroxide and 0.5% uranyl acetate. After dehydration and embedding in Epru the probes were processed for ultrathin section. Micrographs were taken with a Zeiss EM-10A electron microscope at 80 kV. The magnification indicator was routinely controlled by the use of a grating replica.

mitochondrial proteome = assay: 2-D gel electrophoresis / 2-D western blot of the mitochondrial proteome; assay type: cell-based, human
Method: Mitochondrial extracts of U251 MG cells precipitated according to the ProteoExtract Protein Precipitation Kit (Calbiochem) were pipetted into the sample cup of each strip holder. For large format 2-D-electrophoresis with silver staining and 2-D-western blots, isoelectric focusing (IEF) was performed as described previously (Schutt et al., 2002) using dry polyacrylamide gel strips (IPG, 24 cm) with an immobilized pH gradient pH 3-10 and the IPGphor1 Isolectric Focusing System (Amersham Pharmacia Biotech). IPG strips were rehydrated in reswelling buffer (7 M urea, 2 M thiourea, 2% (w/v) CHAPS, 65 mM dithiothreitol (DTT), 0.8% Pharmalite) overnight. The IEF protocol started at 500 V for 4 h, followed by an increase from 500 V to 4000 V for 10 h and finally 8000 V for 10 h. Equilibration buffer for IPG strips contained 75 mM Tris-HCl, pH 8.8, 2% SDS, 6 M urea, 29.3% glycerol and 0.002% (w/v) bromophenol blue solution, supplemented with 1.5% DDT for the first 15 min and with 2.5% (w/v) iodoacetamide for the following 15 min. For the second dimension the ETTAN Dalt six electrophoresis system was used. After draining the equilibration solution on filter paper the IPG strips were placed on the SDS gel; the electrical settings were 10 mA/gel, 80 V, 1 W/gel for 1 h, followed by 40 mA/gel, 500 V, 13 W/gel for 5-6 h. […]

[1] = tested on: non-immortalized human astrocytic cells; assay: Cytotoxicity assay, cell survival by crystal violet staining; assay type: cell-based; settings: 72 h (FIG. 1B)
Method: (§1) U251 glioblastoma cells and non-immortalized human astrocytic cells (ScienCell, USA) were maintained in DMEM (Life Technologies) containing 10% FCS, 4.5 g/L glucose, glutamine, 110 mg/L sodium pyruvate, and 1% penicillin-streptomycin (Life Technologies) and in astrocyte medium (ScienCell) containing 2% FBS (fetal bovine serum) and 1% penicillin-streptomycin at 37° C. and 5% CO2. For the generation of pseudo rho zero cells (0.0), U251 MG cells were treated with low dose (250 ng/ml) ethidiumbromide for 3 months. The cells were supplemented with DMEM (10% FCS, 1% P/S) containing 50 μg/ml L-pyruvate and 5 mg/ml uridine (King and Attardi, 1989).
(§2) 20,000 U251MG glioblastoma cells or human astrocytic cells (ScienCell) were plated into 96-well plates. After 24 h cells were treated with rhHMGB1 (Sigma Aldrich) or rat recombinant HMGB1 (generously provided by Angelika Bierhaus, Heidelberg, Germany), and TRAIL (for 24 h) or Temozolomide (for 72 h) alone or in combination, respectively. Cell survival was measured by crystal violet staining as described previously (Gdynia et al., 2007). Cell proliferation was assessed by seeding 50,000 U251 MG cells in 6 cm culture plates and treatment with rhHMGB1, followed by counting the cells in a Neubauer chamber at day 0, 2, 4 and 5.

pseudo rho zero cells = assay: Survival of pseudo rho zero cells by crystal violet analysis; assay type: cell-based, human; settings: cells devoid of intact mitochondrial DNA
Method: as §1, §2

[2] = tested on: NCH421 K glioblastoma stem-cell-like cells; assay: Trypan blue vital stain, counting blue cells in a Neubauer chamber; assay type: cell-based; settings: 80 nM, 24 h, p<0.05
Method: Trypan blue influx into NCH421 K glioblastoma multiforme stem-cell-like cells was […] culture flasks and then incubating them for 10 min with 1:1,000 trypan blue solution. […] Glioblastoma stem-cell-like cell line NCH421K was maintained in BIT (bovine serum albumine, insulin, transferring)-medium (DMEM HAMS F12+1% P/S+1% L-glutamin+10 ml BIT+EGF (20 ng/ml)+BFGF (20 ng/ml)).

“rhHMGB1: recombinant human High Mobility Group B1 protein (Sigma Aldrich)” was tested, and the “formation of megamitochondria, COX IV immunofluorescence” value (U251MG cells; FIG. 8C) was “generation of extremely enlarged spherical mitochondria”, the “autophagosomes or rupture of the outer cell membrane, electron microscopy” value (U251MG cells; FIG. 10) was “not observed” and the “number and size of megamitochondria, electron microscopy” value (U251MG cells; FIG. 10) was “increased in a time- and concentration-dependent manner”. For the same substance, the “typical morphological features of apoptosis (membrane blebbing, apoptotic bodies, chromatin condensation)” value (U251MG cells; after rhHMGB1 treatment) was “could not be detected”, the “mitochondrial proteome, 2-D silver staining” value (mitochondrial proteome; 80 nM, 24 h (FIG. 11B)) was “massive depletion of the isoelectric-neutral proteins” and the “covalently bound malondialdehyde, 2-D western blot” value (mitochondrial proteome; alkaline range (FIG. 11C)) was “substantial increase in covalently bound malondialdehyde”. For the same substance, the “susceptibility to rhHMGB1-induced cell death” value [1] was “not human non-immortalized astrocytes were susceptible”, the “rhHMGB1-induced cell death in pseudo rho zero cells” value (pseudo rho zero cells) was “almost completely resistant; also recorded: highly protected” and the “trypan blue influx versus control” value [2] was 7±1 fold increase.

From patent US20110123483A1, “HMGB1 FOR CANCER TREATMENT” (DEUTSCHES KREBSFORSCHUNGSZENTRUM, priority 2009, published 2011)
